Assay results from patent US9670261B2 (Sanofi, priority 2012, dated 2017).
pEC50: −log10 of the molar value. *1 amine or outer side, *2 acyl side, *3 side chain or, on linkers, in order; H or OH if unused. Where a SMILES comes first, the peptide text is derived from it. Side-chain parts run from the residue outwards. [ ]: non-standard residue; d: D form. The star is where a group is joined. γGlu = O=C(O)[C@H](CCC(=O)[*:2])N[*:1]; Palmitoyl = CCCCCCCCCCCCCCCC(=O)*; Aib = CC(C)(N)C(=O)O

Experiments:
[1] = in vivo; conditions: mouse, sc, 1 mg/kg
Method: (§2) Mice were dosed 1 mg/kg subcutaneously (s.c.). The mice were sacrified and blood samples were collected after 0.25, 0.5, 1, 2, 4, 8, 16 and 24 hours post application. Plasma samples were analyzed after protein precipitation via liquid chromatography mass spectrometry (LC/MS). PK parameters and half-life were calculated using WinonLin Version 5.2.1 (non-compartment model).

[2] = physchem
[3] = test system: female leptin-receptor deficient diabetic db/db mice; assay: Blood glucose and HbA1c in leptin-receptor deficient diabetic db/db mice (method 3); format: in vivo; conditions: single 100 μg/kg s.c., fed db/db mice
Text: Female BKS.Cg-m+/+Leprdb/J (db/db) and BKS.Cg-m+/+Leprdb/+(lean control) mice were obtained from Charles River Laboratories, Germany, at an age of 9-10 weeks. The animals were housed in groups in a specific pathogen-free barrier facility on a 12-h light/dark cycle with free access to water and rodent-standard chow. After 1 week of acclimatization, blood samples were drawn from the tail without anaesthesia and blood glucose (method: d-glucose hexokinase, hemolysate, AU640 Beckman Coulter) and HbA1c level (method: hemolysate, Cobas6000 c501, Roche Diagnostics, Germany) were determined. […] The volume of administration was 5 mL/kg. The animals had access to water and chow during the experiment, food consumption was determined at all time points of blood sampling. […] Blood sampling was performed by tail incision without anaesthesia. […] At the end of the study, blood samples (tail, no anaesthesia) were analyzed for glucose and HbA1c. […] Statistical analyses were performed with Everstat 6.0 by repeated measures two-way ANOVA and Dunnett's post-hoc analyses. Differences versus vehicle-treated db/db control mice were considered statistically significant at the p<0.05 level. […] At predefined time points, more blood samples were taken to measure blood glucose and generate the blood glucose profile over 24 h. […] Blood glucose and HbA1c were determined before start of treatment and at the end of the study after 4 weeks of treatment. […] Before treatment started, no significant differences in blood glucose levels could be detected between db/db groups, only the lean control animals had significant lower glucose levels. During the 4 weeks of treatment, glucose levels increased in the vehicle-treated db/db control group, indicating a worsening of the diabetic situation.

[4] = test system: female NMRI-mice; assay: Automated assessment of 22-hours feed intake in mice; format: in vivo; conditions: 0.1 mg/kg s.c.
Method: Female NMRI-mice of a body weight between 20 and 30 g were used. Mice were adapted to housing conditions for at least one week and for at least one day single-caged in the assessment equipment, when basal data were recorded simultaneously. On the study day, test product was administered subcutaneously close to the lights-off phase (12 h lights off) and assessment of feed consumption was directly started afterwards. Assessment included continued monitoring over 22 hours, while data are processed as mean over every 30 min. Repetition of this procedure over several days was possible. Restriction of assessment to 22 hours was for practical reasons to allow for reweighing of animals, refilling of feed and water and drug administration between procedures. Results could be assessed as cumulated data over 22 hours or differentiated to 30 min intervals. […] Statistical analyses were performed with Everstat 6.0 by two-way ANOVA on repeated measures and Dunnett's post-hoc analyses. Differences were considered statistically significant at the p<0.05 level. […] Lights-off phase (dark phase) started 4 hours later. […].

[5] = target: T1, human GIP receptor (Homo sapiens, UniProt P48546); assay: cAMP response (HTRF) of HEK-293 cells stably expressing human GIP receptor; format: cell-based; conditions: Table 7; cAMP formation; read-out: EC50 hGIP R
T1 construct: expressed in transfected cells
T1 sequence (P48546 22-466): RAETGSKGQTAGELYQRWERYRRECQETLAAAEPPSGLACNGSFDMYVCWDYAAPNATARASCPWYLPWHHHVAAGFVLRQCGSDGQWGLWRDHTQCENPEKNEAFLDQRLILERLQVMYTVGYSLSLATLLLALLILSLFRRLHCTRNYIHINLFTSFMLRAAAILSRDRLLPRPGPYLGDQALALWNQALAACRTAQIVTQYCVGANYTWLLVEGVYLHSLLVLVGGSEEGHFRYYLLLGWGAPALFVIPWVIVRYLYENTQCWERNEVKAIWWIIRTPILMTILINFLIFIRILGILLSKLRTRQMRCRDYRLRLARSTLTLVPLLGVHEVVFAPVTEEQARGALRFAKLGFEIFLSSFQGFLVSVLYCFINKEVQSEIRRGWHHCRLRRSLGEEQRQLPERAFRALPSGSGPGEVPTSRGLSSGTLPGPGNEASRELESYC
Procedure, shortened: (§1)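 Intracellular cAMP is quantified by HTRF following a 30-minute room-temperature incubation of cell suspensions (400000 cells/ml) with test compound in HBSS, 20 mM HEPES, 0.1% BSA and 2 mM IBMX.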

[6] = target: T2, human GLP-1 receptor (Homo sapiens, UniProt P43220); assay: cAMP response (HTRF) of HEK-293 cells stably expressing human GLP-1 receptor; format: cell-based; conditions: Table 7; cAMP formation; read-out: EC50 hGLP-1 R
T2 construct: expressed in transfected cells
Procedure, shortened: as §1

[7] = target: T3, human glucagon receptor (Homo sapiens, UniProt P47871); assay: cAMP response (HTRF) of HEK-293 cells stably expressing human glucagon receptor; format: cell-based; conditions: Table 7; cAMP formation; read-out: EC50 hGLUC R
T3 construct: expressed in transfected cells
Method: cAMP content of cells was determined using a kit from Cisbio Corp. (cat. no. 62AM4PEC) based on HTRF (Homogenous Time Resolved Fluorescence). For preparation, cells were split into T175 culture flasks and grown overnight to near confluency in medium (DMEM/10% FBS). Medium was then removed and cells washed with PBS lacking calcium and magnesium, followed by proteinase treatment with accutase (Sigma-Aldrich cat. no. A6964). Detached cells were washed and resuspended in assay buffer (1×HBSS; 20 mM HEPES, 0.1% BSA, 2 mM IBMX) and cellular density determined. They were then diluted to 400000 cells/ml and 25 μl-aliquots dispensed into the wells of 96-well plates. For measurement, 25 μl of test compound in assay buffer was added to the wells, followed by incubation for 30 minutes at room temperature.

[8] = Pharmacokinetic testing in mice, s.c.; conditions: mouse, plasma, sc, 1 mg/kg
Method: as §2

T2 sequence (P43220 24-463): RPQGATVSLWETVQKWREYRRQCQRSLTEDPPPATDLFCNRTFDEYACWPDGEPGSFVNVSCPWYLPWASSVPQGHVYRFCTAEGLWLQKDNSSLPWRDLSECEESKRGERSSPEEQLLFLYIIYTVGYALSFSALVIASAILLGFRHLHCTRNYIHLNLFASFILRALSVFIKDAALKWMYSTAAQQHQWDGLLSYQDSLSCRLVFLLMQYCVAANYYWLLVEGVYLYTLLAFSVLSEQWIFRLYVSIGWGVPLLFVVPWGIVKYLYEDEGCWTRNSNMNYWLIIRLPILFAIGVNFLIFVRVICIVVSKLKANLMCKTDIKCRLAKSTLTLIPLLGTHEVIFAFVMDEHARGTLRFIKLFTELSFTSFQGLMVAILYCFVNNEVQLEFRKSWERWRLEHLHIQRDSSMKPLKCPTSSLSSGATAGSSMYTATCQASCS
T3 sequence (P47871 26-477): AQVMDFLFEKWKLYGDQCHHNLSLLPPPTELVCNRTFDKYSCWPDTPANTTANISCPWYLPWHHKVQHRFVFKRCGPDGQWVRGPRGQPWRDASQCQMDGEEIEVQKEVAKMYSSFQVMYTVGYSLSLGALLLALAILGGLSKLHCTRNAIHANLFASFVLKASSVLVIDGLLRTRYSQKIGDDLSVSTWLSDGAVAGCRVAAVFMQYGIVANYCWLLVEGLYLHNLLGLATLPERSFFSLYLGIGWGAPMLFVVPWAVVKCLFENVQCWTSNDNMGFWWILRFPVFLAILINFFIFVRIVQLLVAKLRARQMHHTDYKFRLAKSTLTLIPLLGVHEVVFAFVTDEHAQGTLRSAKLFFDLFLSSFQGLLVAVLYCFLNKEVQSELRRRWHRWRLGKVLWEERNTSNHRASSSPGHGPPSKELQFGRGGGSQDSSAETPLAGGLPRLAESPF

SMILES	Cmax [1] [ng/mL]	half-life [1] [min]	solubility at 2 h ([2]; pH 4.5) [µg/mL]	solubility at 2 h ([2]; pH 7.4) [µg/mL]	blood glucose compared to db/db control mice, 24 h profile [3]	reduction of feed intake after 22 hours [4] [%]	pEC50 [5]	pEC50 [6]	pEC50 [7]	Cmax [8] [ng/mL]	half-life [8] [min]
CCCCCCCCCCCCCCCC(=O)N[C@@H](CCC(=O)NCCCC[C@H](NC(=O)[C@H](CCC(N)=O)NC(=O)[C@@H](NC(=O)[C@H](CO)NC(=O)[C@H](CC(C)C)NC(=O)[C@H](CC(=O)O)NC(=O)[C@H](CO)NC(=O)[C@@H](NC(=O)[C@H](Cc1ccccc1)NC(=O)[C@@H](NC(=O)CNC(=O)[C@H](CCC(=O)O)NC(=O)C(C)(C)NC(=O)[C@@H](N)Cc1ccc(O)cc1)[C@@H](C)O)[C@@H](C)O)[C@@H](C)CC)C(=O)N[C@@H](CC(=O)O)C(=O)N[C@@H](CCCCN)C(=O)N[C@@H](CCCNC(=N)N)C(=O)N[C@@H](C)C(=O)N[C@@H](C)C(=O)N[C@@H](CCC(N)=O)C(=O)N[C@@H](CC(=O)O)C(=O)N[C@@H](Cc1ccccc1)C(=O)N[C@H](C(=O)N[C@@H](CCC(=O)O)C(=O)N[C@@H](Cc1c[nH]c2ccccc12)C(=O)N[C@@H](CC(C)C)C(=O)N[C@@H](CCCCN)C(=O)N[C@@H](CC(N)=O)C(=O)NCC(=O)NCC(=O)N1CCC[C@H]1C(=O)N[C@@H](CO)C(=O)N[C@@H](CO)C(=O)NCC(=O)N[C@@H](C)C(=O)N1CCC[C@H]1C(=O)N1CCC[C@H]1C(=O)N1CCC[C@H]1C(=O)N[C@@H](CO)C(N)=O)[C@@H](C)CC)C(=O)O [SEQ ID NO: 12, Y-Aib-E-G-T-F-T-S-D-L-S-I-Q-K(γE-x53)-DKRAAQDFIEWLKNGGPSSGAPPPS-NH2]	3790	168	> 1000	> 1000	significant decrease in blood glucose	71	11.05				
CCCCCCCCCCCCCCCC(=O)N[C@@H](CCC(=O)NCCCC[C@H](NC(=O)[C@H](CCC(N)=O)NC(=O)[C@@H](NC(=O)[C@H](CO)NC(=O)[C@H](CC(C)C)NC(=O)[C@H](CC(=O)O)NC(=O)[C@H](CO)NC(=O)[C@@H](NC(=O)[C@H](Cc1ccccc1)NC(=O)[C@@H](NC(=O)CNC(=O)[C@H](CCC(=O)O)NC(=O)C(C)(C)NC(=O)[C@@H](N)Cc1ccc(O)cc1)[C@@H](C)O)[C@@H](C)O)[C@@H](C)CC)C(=O)N[C@@H](CCC(=O)O)C(=O)N[C@@H](CCCCN)C(=O)N[C@@H](CCCNC(=N)N)C(=O)N[C@@H](C)C(=O)N[C@@H](C)C(=O)N[C@@H](CCC(N)=O)C(=O)N[C@@H](CCC(=O)O)C(=O)N[C@@H](Cc1ccccc1)C(=O)N[C@H](C(=O)N[C@@H](CCC(=O)O)C(=O)N[C@@H](Cc1c[nH]c2ccccc12)C(=O)N[C@@H](CC(C)C)C(=O)N[C@@H](CCCCN)C(=O)N[C@@H](C)C(=O)NCC(=O)NCC(=O)N1CCC[C@H]1C(=O)N[C@@H](CO)C(=O)N[C@@H](CO)C(=O)NCC(=O)N[C@@H](C)C(=O)N1CCC[C@H]1C(=O)N1CCC[C@H]1C(=O)N1CCC[C@H]1C(=O)N[C@@H](CO)C(N)=O)[C@@H](C)CC)C(=O)O [SEQ ID NO: 34, Y-Aib-E-G-T-F-T-S-D-L-S-I-Q-K(γE-x53)-EKRAAQEFIEWLKAGGPSSGAPPPS-NH2] (H-Y[Aib]EGTFTSDLSIQK([γGlu-Palmitoyl])EKRAAQEFIEWLKAGGPSSGAPPPS-NH2)								11.34	7.94	5130	168
